Data: the supplement of paper PMC10307832

Experiments:
Assay in all cases: relative viability (nuclei count vs DMSO), 5 days (fraction); higher = more cells survive
[1] = compound: O=c1[nH]cc(F)c(=O)[nH]1 [5-Fluorouracil] + CC1(C)CCC(c2ccc(Cl)cc2)=C(CN2CCN(c3ccc(C(=O)NS(=O)(=O)c4ccc(N[C@H](CCN5CCOCC5)CSc5ccccc5)c(S(=O)(=O)C(F)(F)F)c4)cc3)CC2)C1 [Navitoclax] (partner 0.5 µM)
How it was run: (§1)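 A single step with final 0.05% Triton X-100, 1% formaldehyde and 1 ug/ml Hoechst fixed the cells and stained nuclei 5 days after treatment. Lung cancer cell lines in 1536-well plates had been treated by pin tool the day after seeding with one drug alone or a fixed anchor-drug dose plus five library-drug doses (not always all listed) in √10 steps, and nuclei were counted on 4× images. Relative viability is the ratio of nuclei in treated wells to nuclei in vehicle wells, taken as the median of duplicate plates.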

5-Fluorouracil + AZD7762 = compound: O=c1[nH]cc(F)c(=O)[nH]1 [5-Fluorouracil] + NC(=O)Nc1cc(-c2cccc(F)c2)sc1C(=O)N[C@H]1CCCNC1 [AZD7762] (partner 0.2 µM)
How it was run: as §1

Sulindac + Palbociclib = compound: CC1=C(CC(=O)O)c2cc(F)ccc2/C1=C\c1ccc([S+](C)[O-])cc1 [Sulindac] + CC(=O)c1c(C)c2cnc(Nc3ccc(N4CCNCC4)cn3)nc2n(C2CCCC2)c1=O [Palbociclib] (partner 0.5 µM)
How it was run: as §1

Sulindac + Olaparib = compound: CC1=C(CC(=O)O)c2cc(F)ccc2/C1=C\c1ccc([S+](C)[O-])cc1 [Sulindac] + O=C(c1cc(Cc2n[nH]c(=O)c3ccccc23)ccc1F)N1CCN(C(=O)C2CC2)CC1 [Olaparib] (partner 8 µM)
How it was run: as §1

| Cell Line | relative viability ([1]; first compound 0.02 µM) | relative viability ([1]; first compound 0.2 µM) | relative viability ([1]; first compound 0.6325 µM) | relative viability ([1]; first compound 2 µM) | relative viability (5-Fluorouracil + AZD7762; first compound 0.02 µM) | relative viability (5-Fluorouracil + AZD7762; first compound 0.2 µM) | relative viability (5-Fluorouracil + AZD7762; first compound 0.6325 µM) | relative viability (5-Fluorouracil + AZD7762; first compound 2 µM) | relative viability (Sulindac + Palbociclib; first compound 0.08 µM) | relative viability (Sulindac + Palbociclib; first compound 0.253 µM) | relative viability (Sulindac + Palbociclib; first compound 0.8 µM) | relative viability (Sulindac + Palbociclib; first compound 2.53 µM) | relative viability (Sulindac + Palbociclib; first compound 8 µM) | relative viability (Sulindac + Olaparib; first compound 0.08 µM) | relative viability (Sulindac + Olaparib; first compound 0.253 µM) | relative viability (Sulindac + Olaparib; first compound 0.8 µM) | relative viability (Sulindac + Olaparib; first compound 2.53 µM) | relative viability (Sulindac + Olaparib; first compound 8 µM) |
| --- | --- | --- | --- | --- | --- | --- | --- | --- | --- | --- | --- | --- | --- | --- | --- | --- | --- | --- |
| 201T | 1.18 | 1.01 | 0.543 | 0.42 | 0.51 | 0.264 | 0.197 | 0.217 | 0.338 | 0.359 | 0.386 | 0.355 | 0.38 | 0.896 | 0.825 | 0.846 | 0.886 | 0.883 |
| A549 | 1.2 | 0.754 | 0.244 | 0.114 |  |  |  |  |  |  |  |  |  | 0.468 | 0.303 |  | 0.331 | 0.352 |
| A-427 | 0.827 | 0.999 | 0.879 | 0.438 | 0.676 | 0.805 | 0.308 | 0.253 | 0.486 | 0.548 | 0.495 | 0.473 | 0.565 | 0.74 | 0.787 | 0.8 | 0.742 | 0.821 |
| ABC-1 |  |  |  |  | 0.754 | 0.933 | 0.722 | 0.634 | 0.73 | 0.946 | 0.514 | 0.475 | 0.639 | 1.1 | 0.611 | 0.769 | 0.591 | 0.601 |
| BEN | 0.0616 | 0.276 | 0.0857 | 0.0672 | 0.791 | 0.804 | 0.606 | 0.679 | 0.415 | 0.495 | 0.506 | 0.483 | 0.503 | 0.964 | 1.07 | 1 | 1.05 | 1.06 |
| CAL-12T | 1.13 | 1.25 | 0.974 | 0.489 | 0.685 | 0.588 | 0.421 | 0.421 | 0.216 | 0.549 | 0.314 | 0.526 | 0.576 | 0.794 | 0.727 | 0.649 | 0.664 | 0.769 |
| COR-L23 | 1.05 | 0.949 | 0.533 | 0.239 |  |  |  |  | 0.325 | 0.268 | 0.233 | 0.275 | 0.334 | 0.348 | 0.449 | 0.291 | 0.323 | 0.376 |
| COR-L 105 | 0.707 | 0.685 | 0.694 | 0.582 |  |  |  |  | 0.387 | 0.402 | 0.365 | 0.412 | 0.395 | 0.645 | 0.61 | 0.692 | 0.717 | 0.72 |
| Calu-6 | 0.859 | 0.786 | 0.679 | 0.362 |  |  |  |  |  |  |  |  |  | 0.618 | 0.624 | 0.449 | 0.531 | 0.711 |
| ChaGo-K-1 | 0.956 | 1.07 | 0.672 | 0.685 | 0.883 | 0.917 | 0.609 | 0.383 | 1.09 | 0.918 | 0.838 | 0.924 | 0.988 | 0.485 | 0.359 | 0.414 | 0.379 | 0.449 |
| EBC-1 | 0.342 | 0.405 | 0.44 | 0.339 |  |  |  |  |  |  |  |  |  | 0.846 | 0.643 | 0.545 | 0.748 | 0.816 |
| EKVX | 0.847 | 0.283 | 0.142 | 0.124 | 0.322 | 0.157 | 0.145 | 0.157 | 0.396 | 0.35 | 0.31 | 0.339 | 0.465 | 0.736 | 0.929 | 0.718 | 0.803 | 0.93 |
| EMC-BAC-2 | 1.19 | 1.2 | 1.25 | 1.19 | 1.14 | 1.22 | 1.11 | 1.01 | 0.532 | 0.512 | 0.482 | 0.505 | 0.566 | 0.493 | 0.488 | 0.476 | 0.46 | 0.566 |
| EPLC-272H | 1.18 | 0.79 | 0.372 | 0.259 | 0.243 | 0.122 | 0.109 | 0.102 | 0.255 |  | 0.323 | 0.305 | 0.318 | 0.828 | 0.852 | 0.72 | 0.639 | 0.727 |
| H3255 | 0.566 | 0.795 | 0.454 | 0.419 | 0.98 | 0.949 | 0.696 | 0.567 | 0.288 | 0.32 | 0.391 | 0.311 | 0.326 | 0.573 | 0.531 | 0.501 | 0.557 | 0.553 |
| HARA | 1.12 | 1.15 | 1.11 | 1.15 | 0.411 | 0.32 | 0.4 | 0.211 | 0.294 | 0.3 | 0.3 | 0.256 | 0.227 | 0.737 | 0.935 | 1 | 0.731 | 0.955 |
| HCC-15 | 0.761 | 0.77 | 0.469 | 0.298 | 1.28 | 1.2 | 0.448 | 0.39 | 0.901 | 0.818 | 0.543 | 0.736 | 0.721 | 0.747 | 0.763 | 0.68 | 0.702 | 0.765 |
| HCC-44 | 0.916 | 0.984 | 0.744 | 0.341 | 1.01 | 0.925 | 0.733 | 0.466 | 0.982 | 1.06 | 0.924 | 0.96 | 0.966 | 0.983 | 1.05 | 0.773 | 0.933 | 1.01 |
| HCC-78 | 0.55 | 0.805 | 0.285 |  | 0.562 | 0.503 | 0.239 | 0.306 | 0.481 | 0.48 | 0.501 | 0.444 | 0.442 | 0.972 | 0.812 | 0.763 | 0.784 | 0.686 |
| HCC-366 | 1.19 | 0.992 | 0.545 | 0.125 | 0.354 | 0.308 | 0.119 | 0.0755 | 0.442 | 0.36 |  | 0.301 | 0.555 | 0.338 | 0.356 |  | 0.399 | 0.508 |
